# From paper PMC7156458, “Synthetic biology based construction of biological activity-related library of fungal decalin-containing diterpenoid pyrones” (Nature Communications, 2020)
# Molecular target: Aβ42 (Homo sapiens, UniProt P05067)
# Experiment: Th-T (thioflavin-T) assay of Aβ42 aggregation
# Format: biochemical
# Settings: for Th-T assay plate reading, mean of three wells (Supplementary Fig. 47): source data, Ab alone and No Ab as controls
# Chain of Aβ42 (P05067 672-713): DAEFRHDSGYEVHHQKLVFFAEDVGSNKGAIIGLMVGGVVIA
structure (smiles),measurement,setting,value
C=C1CCC2C3(C)CC(C=C(C)C)OC3CCC2(C)C1Cc1c(OC)oc(C)c(C)c1=O (centres unmarked) [Compound 23],"Th-T fluorescence, mean of three wells","Aβ42 aggregation time course, reading M117",3.821
same,"Th-T fluorescence, mean of three wells","Aβ42 aggregation time course, reading M118",3.829
same,"Th-T fluorescence, mean of three wells","Aβ42 aggregation time course, reading M119",3.818
same,"Th-T fluorescence, mean of three wells","Aβ42 aggregation time course, reading M120",3.827
same,"Th-T fluorescence, mean of three wells","Aβ42 aggregation time course, reading M121",3.807
same,"Th-T fluorescence, mean of three wells","Aβ42 aggregation time course, reading M122",3.851
same,"Th-T fluorescence, mean of three wells","Aβ42 aggregation time course, reading M123",3.84
same,"Th-T fluorescence, mean of three wells","Aβ42 aggregation time course, reading M124",3.827
same,"Th-T fluorescence, mean of three wells","Aβ42 aggregation time course, reading M125",3.803
same,"Th-T fluorescence, mean of three wells","Aβ42 aggregation time course, reading M126",3.803
same,"Th-T fluorescence, mean of three wells","Aβ42 aggregation time course, reading M127",3.811
same,"Th-T fluorescence, mean of three wells","Aβ42 aggregation time course, reading M128",3.832
same,"Th-T fluorescence, mean of three wells","Aβ42 aggregation time course, reading M129",3.806
same,"Th-T fluorescence, mean of three wells","Aβ42 aggregation time course, reading M130",3.7777
same,"Th-T fluorescence, mean of three wells","Aβ42 aggregation time course, reading M131",3.7932
same,"Th-T fluorescence, mean of three wells","Aβ42 aggregation time course, reading M132",3.801
same,"Th-T fluorescence, mean of three wells","Aβ42 aggregation time course, reading M133",3.762
same,"Th-T fluorescence, mean of three wells","Aβ42 aggregation time course, reading M134",3.777
same,"Th-T fluorescence, mean of three wells","Aβ42 aggregation time course, reading M135",3.785
same,"Th-T fluorescence, mean of three wells","Aβ42 aggregation time course, reading M136",3.777
same,"Th-T fluorescence, mean of three wells","Supplementary Fig. 47, reading M137",3.7533
same,"Th-T fluorescence, mean of three wells","Supplementary Fig. 47, reading M138",3.768
same,"Th-T fluorescence, mean of three wells","Supplementary Fig. 47, reading M139",3.732
same,"Th-T fluorescence, mean of three wells","Supplementary Fig. 47, reading M140",3.756
same,"Th-T fluorescence, mean of three wells","Supplementary Fig. 47, reading M141",3.727
same,"Th-T fluorescence, mean of three wells","Supplementary Fig. 47, reading M142",3.722
same,"Th-T fluorescence, mean of three wells","Supplementary Fig. 47, reading M143",3.7233
same,"Th-T fluorescence, mean of three wells","Supplementary Fig. 47, reading M144",3.718
same,"Th-T fluorescence, mean of three wells","Supplementary Fig. 47, reading M145",3.718
same,"Th-T fluorescence, mean of three wells","Supplementary Fig. 47 source data, measurement M37 of time course",3.91
same,"Th-T fluorescence, mean of three wells","Supplementary Fig. 47 source data, measurement M38 of time course",3.88
same,"Th-T fluorescence, mean of three wells","Supplementary Fig. 47 source data, measurement M39 of time course",3.926
same,"Th-T fluorescence, mean of three wells","Supplementary Fig. 47 source data, measurement M40 of time course",3.945
same,"Th-T fluorescence, mean of three wells","Supplementary Fig. 47 source data, measurement M41 of time course",3.951
same,"Th-T fluorescence, mean of three wells","Supplementary Fig. 47 source data, measurement M42 of time course",3.943
same,"Th-T fluorescence, mean of three wells","Supplementary Fig. 47 source data, measurement M43 of time course",3.96
same,"Th-T fluorescence, mean of three wells","Supplementary Fig. 47 source data, measurement M44 of time course",3.975
same,"Th-T fluorescence, mean of three wells","Supplementary Fig. 47 source data, measurement M45 of time course",3.993
same,"Th-T fluorescence, mean of three wells","Supplementary Fig. 47 source data, measurement M46 of time course",3.9875
same,"Th-T fluorescence, mean of three wells","Supplementary Fig. 47 source data, measurement M47 of time course",4.0057
same,"Th-T fluorescence, mean of three wells","Supplementary Fig. 47 source data, measurement M48 of time course",4.03
same,"Th-T fluorescence, mean of three wells","Supplementary Fig. 47 source data, measurement M49 of time course",4.026
same,"Th-T fluorescence, mean of three wells","Supplementary Fig. 47 source data, measurement M50 of time course",3.972
same,"Th-T fluorescence, mean of three wells","Supplementary Fig. 47 source data, measurement M51 of time course",4.006
same,"Th-T fluorescence, mean of three wells","Supplementary Fig. 47 source data, measurement M52 of time course",4
same,"Th-T fluorescence, mean of three wells","Supplementary Fig. 47 source data, measurement M53 of time course",3.995
same,"Th-T fluorescence, mean of three wells","Supplementary Fig. 47 source data, measurement M54 of time course",4.005
same,"Th-T fluorescence, mean of three wells","Supplementary Fig. 47 source data, measurement M55 of time course",4.01
same,"Th-T fluorescence, mean of three wells","Supplementary Fig. 47 source data, measurement M56 of time course",4.026
same,"Th-T assay plate reading, mean of three wells (Supplementary Fig. 47)",measurement M1,0.1917
same,"Th-T assay plate reading, mean of three wells (Supplementary Fig. 47)",measurement M2,0.1872
same,"Th-T assay plate reading, mean of three wells (Supplementary Fig. 47)",measurement M3,0.2017
same,"Th-T assay plate reading, mean of three wells (Supplementary Fig. 47)",measurement M4,0.2278
same,"Th-T assay plate reading, mean of three wells (Supplementary Fig. 47)",measurement M5,0.2368
same,"Th-T assay plate reading, mean of three wells (Supplementary Fig. 47)",measurement M6,0.2919
same,"Th-T assay plate reading, mean of three wells (Supplementary Fig. 47)",measurement M7,0.3712
same,"Th-T assay plate reading, mean of three wells (Supplementary Fig. 47)",measurement M8,0.4061
same,"Th-T assay plate reading, mean of three wells (Supplementary Fig. 47)",measurement M9,0.4563
same,"Th-T assay plate reading, mean of three wells (Supplementary Fig. 47)",measurement M10,0.5903
same,"Th-T assay plate reading, mean of three wells (Supplementary Fig. 47)",measurement M11,0.9948
same,"Th-T assay plate reading, mean of three wells (Supplementary Fig. 47)",measurement M12,1.768
same,"Th-T assay plate reading, mean of three wells (Supplementary Fig. 47)",measurement M13,2.41
same,"Th-T assay plate reading, mean of three wells (Supplementary Fig. 47)",measurement M14,2.789
same,"Th-T assay plate reading, mean of three wells (Supplementary Fig. 47)",measurement M15,2.988
same,"Th-T assay plate reading, mean of three wells (Supplementary Fig. 47)",measurement M16,3.116
same,"Th-T fluorescence, mean of three wells","reading M17, Supplementary Fig. 47 source data",3.2228
same,"Th-T fluorescence, mean of three wells","reading M18, Supplementary Fig. 47 source data",3.274
same,"Th-T fluorescence, mean of three wells","reading M19, Supplementary Fig. 47 source data",3.356
same,"Th-T fluorescence, mean of three wells","reading M20, Supplementary Fig. 47 source data",3.42
same,"Th-T fluorescence, mean of three wells","reading M21, Supplementary Fig. 47 source data",3.466
same,"Th-T fluorescence, mean of three wells","reading M22, Supplementary Fig. 47 source data",3.5211
same,"Th-T fluorescence, mean of three wells","reading M23, Supplementary Fig. 47 source data",3.558
same,"Th-T fluorescence, mean of three wells","reading M24, Supplementary Fig. 47 source data",3.581
same,"Th-T fluorescence, mean of three wells","reading M25, Supplementary Fig. 47 source data",3.61
same,"Th-T fluorescence, mean of three wells","reading M26, Supplementary Fig. 47 source data",3.64
same,"Th-T fluorescence, mean of three wells","reading M27, Supplementary Fig. 47 source data",3.697
same,"Th-T fluorescence, mean of three wells","reading M28, Supplementary Fig. 47 source data",3.7304
same,"Th-T fluorescence, mean of three wells","reading M29, Supplementary Fig. 47 source data",3.755
same,"Th-T fluorescence, mean of three wells","reading M30, Supplementary Fig. 47 source data",3.765
same,"Th-T fluorescence, mean of three wells","reading M31, Supplementary Fig. 47 source data",3.799
same,"Th-T fluorescence, mean of three wells","reading M32, Supplementary Fig. 47 source data",3.833
same,"Th-T fluorescence, mean of three wells","reading M33, Supplementary Fig. 47 source data",3.798
same,"Th-T fluorescence, mean of three wells","reading M34, Supplementary Fig. 47 source data",3.8608
same,"Th-T fluorescence, mean of three wells","reading M35, Supplementary Fig. 47 source data",3.851
same,"Th-T fluorescence, mean of three wells","reading M36, Supplementary Fig. 47 source data",3.863
same,"Th-T fluorescence, mean of three wells","time course, reading M57",4.004
same,"Th-T fluorescence, mean of three wells","time course, reading M58",4.031
same,"Th-T fluorescence, mean of three wells","time course, reading M59",4.01
same,"Th-T fluorescence, mean of three wells","time course, reading M60",3.981
same,"Th-T fluorescence, mean of three wells","time course, reading M61",4.001
same,"Th-T fluorescence, mean of three wells","time course, reading M62",4.022
same,"Th-T fluorescence, mean of three wells","time course, reading M63",4.022
same,"Th-T fluorescence, mean of three wells","time course, reading M64",3.993
same,"Th-T fluorescence, mean of three wells","time course, reading M65",3.998
same,"Th-T fluorescence, mean of three wells","time course, reading M66",4.007
same,"Th-T fluorescence, mean of three wells","time course, reading M67",3.974
same,"Th-T fluorescence, mean of three wells","time-course reading M97, Supplementary Fig. 47 source data",3.915
same,"Th-T fluorescence, mean of three wells","time-course reading M98, Supplementary Fig. 47 source data",3.9
same,"Th-T fluorescence, mean of three wells","time-course reading M99, Supplementary Fig. 47 source data",3.901
same,"Th-T fluorescence, mean of three wells","time-course reading M100, Supplementary Fig. 47 source data",3.914
same,"Th-T fluorescence, mean of three wells","time-course reading M101, Supplementary Fig. 47 source data",3.9074
same,"Th-T fluorescence, mean of three wells","time-course reading M102, Supplementary Fig. 47 source data",3.878
same,"Th-T fluorescence, mean of three wells","time-course reading M103, Supplementary Fig. 47 source data",3.8886
same,"Th-T fluorescence, mean of three wells","time-course reading M104, Supplementary Fig. 47 source data",3.914
same,"Th-T fluorescence, mean of three wells","time-course reading M105, Supplementary Fig. 47 source data",3.865
same,"Th-T fluorescence, mean of three wells","time-course reading M106, Supplementary Fig. 47 source data",3.9
same,"Th-T fluorescence, mean of three wells","time-course reading M107, Supplementary Fig. 47 source data",3.909
same,"Th-T fluorescence, mean of three wells","time-course reading M108, Supplementary Fig. 47 source data",3.872
same,"Th-T fluorescence, mean of three wells","time-course reading M109, Supplementary Fig. 47 source data",3.882
same,"Th-T fluorescence, mean of three wells","time-course reading M110, Supplementary Fig. 47 source data",3.8573
same,"Th-T fluorescence, mean of three wells","time-course reading M111, Supplementary Fig. 47 source data",3.873
same,"Th-T fluorescence, mean of three wells","time-course reading M112, Supplementary Fig. 47 source data",3.8761
same,"Th-T fluorescence, mean of three wells","time-course reading M113, Supplementary Fig. 47 source data",3.855
same,"Th-T fluorescence, mean of three wells","time-course reading M114, Supplementary Fig. 47 source data",3.858
same,"Th-T fluorescence, mean of three wells","time-course reading M115, Supplementary Fig. 47 source data",3.833
same,"Th-T fluorescence, mean of three wells","time-course reading M116, Supplementary Fig. 47 source data",3.836
